According to article PMC11416981 (Frontiers in Pharmacology, 2024):

Key:
Type in all cases: in vivo, humans
[1] = tested on: PDAP patients with gram-positive bacteria cultured from PD effluent; assay: Efficacy of intraperitoneal teicoplanin in PDAP patients (PD effluent analysis, clinical symptoms, infection markers)
From the text: According to the ISPD guidelines recommendation ([Li et al., 2022]), doctors can establish a diagnosis of PDAP. […] Participants should not have taken part in other clinical trials in the past 3 months, understand the trial’s purpose, willingly participate, and sign informed consent forms.
(§1) According to the patient’s PD plan, teicoplanin for injection was evenly distributed into each bag of PD fluid before the patient’s PD procedure to ensure that each bag of dialysis fluid entering the peritoneal cavity contained teicoplanin. […] The number of dialysis times per day is determined by the peritoneal function of each peritoneal dialysis patient.
[…] This assessment considered primary efficacy endpoints, secondary efficacy endpoints, and primary safety endpoints. The primary efficacy endpoints in this study are: 1) White blood cell count in PD effluent (p-WBC) < 100 × 10^6/L; 2) Percentage of neutrophilic granulocytes in PD effluent (p-NE%) < 50%; 3) Resolution of abdominal pain, absence of fever, and clarity of PD effluent in clinical signs of patients. According to ISPD guidelines, meeting all three criteria or two of the three constitutes a cure, while meeting one is classified as partial relief. The efficacy calculation involves determining the proportion of cured and partially relieved patients among the total.
(§2) The secondary efficacy endpoints of this study mainly involve infectious markers: C-reactive protein (CRP) and procalcitonin (PCT); Hematological parameters: white blood cell count (b-WBC), blood neutrophilic granulocyte percentage (b-NE%), and hemoglobin (Hb); Renal function markers: serum creatinine (Scr), urea, uric acid (UA), and albumin (ALB).
However, most patients show significant improvement in clinical symptoms within 1 week.

[2] = Teicoplanin concentration in peritoneal dialysis effluent (PDE) by HPLC
Experimental: as §1
(§3) All patients received peritoneal dialysate and serum samples. […] Serum samples were collected on the 4th day prior to drug administration. Blood samples were centrifuged at 3,000 rpm for 10 minutes. The upper serum layer was then transferred into labeled EP tubes and stored at −80°C. Peritoneal fluid samples were collected daily after the PD procedure. The peritoneal fluid bag was disinfected with iodine, and peritoneal effluent was withdrawn using a sterile syringe and stored at −80°C.
(§4) An Agilent Zorbax SB-C18 column (4.6 × 250 mm, 5 μm) was used. Methyl p-hydroxybenzoate served as the internal standard. The column temperature was kept at 35°C. The mobile phase comprised acetonitrile - 0.01 mol/L potassium dihydrogen phosphate (26:74, v/v, pH = 2.8 adjusted by phosphoric acid). A flow rate of 1 mL/min was set, with an injection volume of 40 μL. UV detection was conducted at 215 nm, while the column temperature remained at 40°C. The pretreatment and chromatographic methods for detecting teicoplanin in serum and PD effluent are the same (Supplement Material).
Using multiple 1.5 mL centrifuge tubes, 360 μL of bovine serum is added to each tube. Subsequently, 40 μL of the respective standard curve series working solution, 30 μL of the internal standard solution, and 600 μL of acetonitrile are added. The contents are thoroughly mixed by vortexing, centrifuged at 14,000 rpm for 8 minutes, and 100 μL of the supernatant is transferred to sample vials for HPLC analysis.
Perform linear regression fitting using the weighted (1/X^2) least squares method, resulting in the standard curve regression equation y = 0.0262x-0.0124 (R^2 = 0.9994).

[3] = Serum teicoplanin concentration by HPLC; conditions: Uncured group n = 7, serum collected on the 4th day prior to drug administration, intraperitoneal 0.2 g daily, HPLC-UV 215 nm, mean ± SD
Experimental: as §3, §4

[4] = tested on: PDAP patients; assay: Renal function, blood lipid and electrolyte indicators before and after teicoplanin treatment; conditions: post-treatment group n = 36
From the text: as §2
There were no significant changes in indicators such as Scr after medication compared to before treatment, and there was no significant difference in the patients' renal function (Table S3).

[5] = Uncured group n = 7, mean (Q25, Q75)
[6] = Uncured group n = 7, mean ± SD, SD
[7] = number of 36 PDAP patients, intraperitoneal 0.2 g daily, after 7 days
[8] = Cured group n = 29, intraperitoneal 0.2 g daily, HPLC-UV, mean (Q25, Q75)
[9] = Cured group n = 29, intraperitoneal 0.2 g daily, HPLC-UV, mean ± SD, SD
[10] = Uncured group n = 7, intraperitoneal 0.2 g daily, HPLC-UV, mean ± SD, SD

Substance: teicoplanin
- CRP after treatment [1, 5]: 34.00 (5.20, 69.38) mg/L
- PCT after treatment [1, 5]: 0.66 (0.29, 2.87) ng/mL
- p-WBC after treatment [1, 5]: 159.00 (112.5, 1023.5) *10^6/L
- b-NE% after treatment [1, 6]: 71.08 ± 25.08%
- b-WBC after treatment [1, 6]: 6.40 ± 2.28 *10^9/L
- p-NE% after treatment [1, 6]: 58.86 ± 33.91%
- Fever ([1]; cases (%) in post-treatment group n = 36, pre-treatment 8 (22.3%)): 1 (2.7%)
- Diarrhea ([1]; cases (%) in post-treatment group n = 36, pre-treatment 9 (25%)): 1 (2.7%)
- Peritoneal dialysate turbidity ([1]; cases (%) in post-treatment group n = 36, pre-treatment 26 (72.2%)): 2 (5.6%)
- Abdominal pain ([1]; cases (%) in post-treatment group n = 36, pre-treatment 31 (86.1%)): 3 (8.3%)
- overall treatment success rate ([1]; cured plus partial remission among 36 PDAP patients, intraperitoneal 0.2 g daily, assessed after 7 days): 88.9%
- patients with treatment failure ([1]; number of 36 PDAP patients (1 died, 3 permanently transitioned to hemodialysis)): 4
- patients cured [1, 7]: 29
- patients in partial remission [1, 7]: 3
- p-Lym% ([1]; post-treatment group n = 36, after 7 days, mean (Q25, Q75), pre-treatment 14.55 (9.85, 29.1)): 72.85 (45.95, 86.45) %
- p-Lym (lymphocyte count in PD effluent) ([1]; post-treatment group n = 36, after 7 days, mean (Q25, Q75), pre-treatment 196.00 (91.15, 444.62)): 14.00 (6.25, 49.75) *10^6/L
- p-NE ([1]; post-treatment group n = 36, after 7 days, mean (Q25, Q75), pre-treatment 1099.60 (418.57, 3333.62)): 4.00 (1.00, 18.00) *10^6/L
- p-WBC (white blood cell count in PD effluent) ([1]; post-treatment group n = 36, after 7 days, mean (Q25, Q75), pre-treatment 1333.5 (573.50, 4475.00)): 28.00 (10.25, 75.00) *10^6/L
- PCT ([1]; secondary indicator, post-treatment group n = 36, after 14 days, mean (Q25, Q75), pre-treatment 0.66 (0.30, 2.99)): 0.61 (0.29, 1.15) ng/mL
- b-WBC ([1]; secondary indicator, post-treatment group n = 36, after 14 days, mean (Q25, Q75), pre-treatment 6.40 (5.32, 8.00)): 6.20 (5.32, 8.85) *10^9/L
- CRP ([1]; secondary indicator, post-treatment group n = 36, after 14 days, mean (Q25, Q75), pre-treatment 37.50 (10.00, 101.27)): 8.30 (3.55, 19.33) mg/L
- b-NE% ([1]; secondary indicator, post-treatment group n = 36, after 14 days, mean (Q25, Q75), pre-treatment 77.60 (67.42, 84.95)): 69.10 (59.32, 72.60) %
- PDE teicoplanin concentration on Day 5 ([2]; 24-h urine volume 0–200 mL, n = 17, M50 (M25, M75)): 12.85 (8.12, 21.23) mg/L
- PDE teicoplanin concentration on Day 5 ([2]; 24-h urine volume 201–537 mL, n = 10, M50 (M25, M75)): 10.17 (7.38, 24.59) mg/L
- PDE teicoplanin concentration on Day 5 ([2]; 24-h urine volume >537 mL, n = 9, M50 (M25, M75)): 23.16 (18.89, 39.45) mg/L
- Day 3 PDE teicoplanin concentration [2, 8]: 14.17 (6.80, 22.93) mg/L
- Day 7 PDE teicoplanin concentration [2, 8]: 20.89 (9.45, 30.23) mg/L
- Day 1 PDE teicoplanin concentration [2, 9]: 13.65 ± 3.26 mg/L
- Day 5 PDE teicoplanin concentration [2, 9]: 18.98 ± 2.43 mg/L
- Day 7 PDE teicoplanin concentration ([2]; Uncured group n = 7, intraperitoneal 0.2 g daily, HPLC-UV, mean (Q25, Q75)): 11.43 (8.42, 13.21) mg/L
- Day 1 PDE teicoplanin concentration [2, 10]: 11.48 ± 3.39 mg/L
- Day 5 PDE teicoplanin concentration [2, 10]: 12.07 ± 2.68 mg/L
- day-5 PDE teicoplanin concentration ([2]; age 49 ~ 61 years old, n = 9, mean ± SD, SD): 10.18 ± 1.68 mg/L
- day-5 PDE teicoplanin concentration ([2]; age 62 ~ 71 years old, n = 9, mean ± SD, SD): 20.19 ± 8.62 mg/L
- day-5 PDE teicoplanin concentration ([2]; age > 71 years old, n = 9, mean ± SD, SD): 29.46 ± 12.29 mg/L
- day-5 PDE teicoplanin concentration ([2]; age ≤ 48 years old, n = 9, mean ± SD, SD): 19.46 ± 10.28 mg/L
- day-5 PDE teicoplanin concentration ([2]; body weight 54-60 kg, n = 9, mean ± SD, SD): 20.19 ± 6.74 mg/L
- day-5 PDE teicoplanin concentration ([2]; body weight 61-76.5 kg, n = 8, mean ± SD, SD): 15.37 ± 6.39 mg/L
- day-5 PDE teicoplanin concentration ([2]; body weight ≤ 53 kg, n = 10, mean ± SD, SD): 24.23 ± 7.34 mg/L
- day-5 PDE teicoplanin concentration ([2]; body weight ≥ 76.5kg, n = 9, mean ± SD, SD): 19.27 ± 7.38 mg/L
- day-5 PDE teicoplanin concentration ([2]; both G1.5% and G2.5% low calcium peritoneal dialysate, n = 8, mean ± SD, SD): 19.47 ± 9.45 mg/L
- PDE teicoplanin concentration on Day 5 ([2]; daily PD frequency 1–3 times, n = 5, mean ± SD, SD): 38.71 ± 16.36 mg/L
- PDE teicoplanin concentration on Day 5 ([2]; daily PD frequency 4 times, n = 18, mean ± SD, SD): 12.89 ± 7.28 mg/L
- PDE teicoplanin concentration on Day 5 ([2]; daily PD frequency 5–6 times, n = 13, mean ± SD, SD): 17.67 ± 10.23 mg/L
- day-5 PDE teicoplanin concentration ([2]; eGFR 4.726 ~ 6.35 mL/min, n = 9, mean ± SD, SD): 28.39 ± 11.47 mg/L
- day-5 PDE teicoplanin concentration ([2]; eGFR 6.36 ~ 8.524 mL/min, n = 9, mean ± SD, SD): 18.26 ± 7.45 mg/L
- day-5 PDE teicoplanin concentration ([2]; eGFR ≤ 4.725 mL/min, n = 9, mean ± SD, SD): 16.05 ± 5.28 mg/L
- day-5 PDE teicoplanin concentration ([2]; eGFR ≥ 8.525 mL/min, n = 9, mean ± SD, SD): 21.21 ± 9.21 mg/L
- day-5 PDE teicoplanin concentration ([2]; females, n = 14, mean ± SD, SD): 18.22 ± 6.29 mg/L
- day-5 PDE teicoplanin concentration ([2]; fibrinogen 4.2 to 5.2 g/L, n = 9, mean ± SD, SD): 20.72 ± 8.16 mg/L
- day-5 PDE teicoplanin concentration ([2]; fibrinogen 5.3 to 6.54 g/L, n = 7, mean ± SD, SD): 17.35 ± 6.45 mg/L
- day-5 PDE teicoplanin concentration ([2]; fibrinogen ≤ 4.1 g/L, n = 9, mean ± SD, SD): 30.56 ± 12.32 mg/L
- day-5 PDE teicoplanin concentration ([2]; fibrinogen ≥ 6.55 g/L, n = 11, mean ± SD, SD): 14.87 ± 7.07 mg/L
- day-5 PDE teicoplanin concentration ([2]; males, n = 22, mean ± SD, SD): 19.25 ± 7.89 mg/L
- day-5 PDE teicoplanin concentration ([2]; only G1.5% low calcium peritoneal dialysate, n = 10, mean ± SD, SD): 19.24 ± 10.23 mg/L
- day-5 PDE teicoplanin concentration ([2]; only G2.5% low calcium peritoneal dialysate, n = 18, mean ± SD, SD): 24.48 ± 9.23 mg/L
- Serum teicoplanin concentration [3]: 10.85 ± 4.92
- ALB ([4]; mean ± SD, pre-treatment 28.66 ± 4.99, SD): 28.55 ± 5.97 g/L
- Scr ([4]; mean ± SD, pre-treatment 772.45 ± 320.15, SD): 739.46 ± 312.14 µmol/L
- HDL ([4]; pre-treatment 0.88 ± 0.38): 0.76 ± 0.55 mmol/L
- TG ([4]; pre-treatment 1.25 (1.02, 1.74)): 1.21 (1.01, 2.27) mmol/L
- LDL ([4]; pre-treatment 1.91 ± 0.81): 1.49 ± 0.69 mmol/L
- Ca ([4]; pre-treatment 2.02 (1.86, 2.18)): 2.08 (1.81, 2.26) mmol/L
- TC ([4]; pre-treatment 3.49 ± 1.02): 2.97 ± 0.85 mmol/L
- eGFR ([4]; pre-treatment 6.35 (4.72, 8.52)): 7.30 (4.90, 8.50) mL/min/1.73m^2
- Urea ([4]; pre-treatment 16.20 (12.55, 21.46)): 16.00 (10.20, 21.30) mmol/L
- Na ([4]; pre-treatment 134.75 ± 5.25): 136.40 ± 5.49 mmol/L
